We go through two molecules from article PMC9780888, “4-Isobutylmethcathinone—A Novel Synthetic Cathinone with High In Vitro Cytotoxicity and Strong Receptor Binding Preference of Enantiomers” (Pharmaceuticals, 2022).

The assay addresses T1, ADRB2 (beta-2 adrenergic receptor) (Homo sapiens, UniProt P07550).
T1 construct: Tango construct (TEV cleavage site and tTA, as described for the dopamine receptor plasmids); host or cells: HTLA (HEK 293-derived)
The experiment in a line: PRESTO-Tango β-arrestin 2 recruitment assay, ADRB2. Type of assay: cell-based. On the procedure: The HTLA cell line was used for the PRESTO-Tango β-arrestin recruitment assay. The HTLA cells were provided as a gift from the laboratory of Bryan Roth (Roth Lab, USA). It is a human cell line derived from human embryonic kidney cells (HEK 293) stably expressing β-arrestin in a fusion with the tobacco etch virus protease (TEV) protease and the luciferase gene under the control of the transcription factor tetracycline transcriptional activator (tTA). The HTLA cells were cultured under standard incubation conditions (37 °C, 5% CO2, 95% humidity) in DMEM with 10% FBS. […]
The transfected HTLA cells were incubated for 24 h, and then 1 × 10^4 cells were seeded per well of a white 96-well clear bottom plate (Brand, Germany) in 40 μL of DMEM with 1% charcoal-stripped FBS (Thermo Fisher Scientific, USA). […] After 5 min., the luminescence was measured using a multi-mode microplate reader SpectraMax iD5 (Molecular Devices, San Jose, CA, USA) measuring the entire wavelength spectrum. All samples were measured in quadruplicates. The data were evaluated by Prism 7 software (GraphPad, […], CA, USA). […]
The error bar represents standard deviation from four replicates. The data were processed and evaluated by GraphPad Prism Software using one-way ANOVA: * p<0.05; ** p<0.01; *** […]
(Recruitment of arrestin is a read-out of receptor activation apart from second messengers.)

Where a name gives a salt, the structure may show the parent alone.

T1 sequence (P07550 whole entry): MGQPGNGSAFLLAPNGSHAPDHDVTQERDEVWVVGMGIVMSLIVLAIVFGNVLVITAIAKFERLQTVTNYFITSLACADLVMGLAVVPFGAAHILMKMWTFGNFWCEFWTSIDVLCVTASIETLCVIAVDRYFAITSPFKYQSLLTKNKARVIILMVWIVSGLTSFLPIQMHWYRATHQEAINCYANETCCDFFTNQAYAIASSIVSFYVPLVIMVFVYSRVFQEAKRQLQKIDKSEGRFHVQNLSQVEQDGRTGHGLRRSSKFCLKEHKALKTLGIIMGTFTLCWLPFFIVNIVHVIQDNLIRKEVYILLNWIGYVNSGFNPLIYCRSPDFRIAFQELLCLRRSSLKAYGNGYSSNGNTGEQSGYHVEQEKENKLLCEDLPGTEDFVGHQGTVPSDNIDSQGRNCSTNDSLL

For the molecule `CNC(C)C(=O)c1ccc(CC(C)C)cc1.Cl` (centres unmarked) [IBMcat, 4-isobutylmethcathinone hydrochloride], the “increase in the luminescence signal” value (ADRB2, 50 and 100 nM) amounted to 1.5 fold.
Regarding `CN[C@@H](C)C(=O)c1ccc(CC(C)C)cc1` [S-IBMCat, (S)-4-isobutylmethcathinone hydrochloride], the “increase in the luminescence signal” value (ADRB2, 1 and 5 nM) came out at 1.5 fold.
